The test system of experiment [1] is P. aeruginosa (Strain PAO1). Briefly: Antimicrobial susceptibility testing by flow cytometry-based assay (LIVE/DEAD BacLight, Syto9/PI). The class given is cell-based. The method, then: E. coli (strain NCTC 10418), P. aeruginosa (Strain PAO1) and S. aureus (Wood 46, NCTC 7121) cells were grown in 5 mL of Todd Hewitt Broth medium (THB; Sigma-Aldrich). Bacteria were cultivated at 37° C. for 15 h in a 15 mL tube to obtain late-log phase cultures. Bacterial cultures were pelleted at 3096 g for 10 minutes; the supernatant was discarded and bacteria were resuspended in phosphate-buffered saline (PBS) supplemented with 40 mg/ml human albumin to mimic chemical properties of blood. Bacteria were diluted to a standardized inoculum of 10^9 CFU/mL.
Bacteria were treated with GA, LL-37, Piperacillin/Tazobactam or Vancomycin in varying concentrations, i.e. 50, 25, 10 or 2 μg/ml, for 30 minutes. As a positive control, bacteria were treated with 7% isopropanol. Hereafter, bacteria were pelleted at 3096 g for 10 minutes; the supernatant was discarded and bacteria were resuspended in PBS. The antimicrobial effect was tested in a well-established and widely used flow cytometry-based assay (LIVE/DEAD® BacLight™ Bacterial Viability and Counting Kit (L34856), Molecular Probes/Invitrogen) according to manufacturer's manual.
For each bacteria, the flow cytometry-based assay was repeated four times.
The antibacterial effect of GA on the gram-negative strain P. aeruginosa was tested by carrying out an experiment as described in Example 1. […] Although the untreated control stained positive for PI, this seemed to be explained by the capability of intact P. aeruginosa to secrete large quantities of DNA to the extracellular milieu.
In general terms: Flow cytometry measures light scatter and fluorescence of single cells or particles in a stream.

Another experiment relates to P. aeruginosa (PAO1). Put plainly: Binding of Alexa Fluor 488-labeled GA to bacteria (MFI by flow cytometry). Set-up: species or system Pseudomonas aeruginosa. The note with it: PBS + 50 mM NaCl, total salt 200 mM, GA 50 and 10 μg/ml. The method, then:
GA was diluted in freshly made 0.1 M NaHCO3 and labeled with Alexa Fluor 488 according to manufacturer's instruction. Late-log phase E. coli (strain NCTC 10418), P. aeruginosa (strain PAO1, ATCC 15692) and S. aureus (Wood 46, NCTC 7121) were resuspended in PBS or PBS supplemented with 50 mM NaCl; treated with either 50 μg/ml or 10 μg/ml Alexa Fluor® 488-labeled GA and incubated on a shaker at 37° C. for 30 minutes. Hereafter, bacteria were diluted 1:100 in PBS and analyzed on a Novocyte™ flow cytometer.
This constitutes a problem when for example treating patients with cystic fibrosis. These patients have a high salt concentration in their lungs of about 150-200 mM, and it is therefore critical that drugs used for treating these patients are active at such high salt concentrations (Gilljam H et al., Scand J Clin Lab Invest. 1989 April; 49(2):121-4). Therefore, the binding capacity of GA to bacteria resuspended in PBS or in PBS supplemented with 50 mM NaCl. PBS+50 mM NaCl results in a total salt concentration of 200 mM. […]
Mean Fluorescence intensities (MFI) were assessed by flow cytometry to quantify the binding capacity of GA to the bacterial membrane. […]

Experiment [2] concerns P. aeruginosa (strain PAO1, ATCC 15692). Briefly: Colony-forming unit (CFU) counting. The note with it: 30 minutes at 37° C. in PBS, in comparison with LL-37. The class given is cell-based, Pseudomonas aeruginosa. The method, then:
Late-log phase E. coli (strain NCTC 10418), P. aeruginosa (strain PAO1, ATCC 15692) and S. aureus (Wood 46, NCTC 7121) were resuspended in PBS and treated with different concentrations of glatiramer acetate (GA) or LL-37 (Innovagen, Lund, Sweden) and incubated on a shaker for 30 minutes at 37° C. Subsequently, a dilution series was performed to achieve a suitable amount of bacteria on the 5% blood agar plates. The 5% blood agar streak plates were cultured at 37° C. for 16 h and the resulting CFUs on the blood agar plates were imaged with a digital camera and counted with the aid of the software ImageJ 1.48v.

The subject of the next experiment is E. coli (NCTC 10418). Briefly: Transmission electron microscopy of treated bacteria. The class given is cell-based, Escherichia coli. The text has this:
Transmission electron microscopy (TEM) was applied to examine the ultrastructural changes in P. aeruginosa (PAO1), S. aureus (Wood 46) and E. coli (NCTC 10418) induced after treatment with GA and LL-37. […] This critical alteration in the outer membrane of E. coli has previously been described as a disintegration of the outer membrane into micelles and vesicle-like structures (Meincken, M., D. L. Holroyd, and M. Rautenbach, Atomic force microscopy study of the effect of antimicrobial peptides on the cell envelope of Escherichia coli. Antimicrob Agents Chemother, 2005. 49(10): p. 4085-92). […] After incubation with LL-37 and GA, we found burst cells, but this observation was most significant after treatment with LL-37 (FIG. 9). Scale bar, 0.5 μm. Experiments were performed as 2 replicates.

[3] abbreviates: within the 30 minutes of treatment.

These results are taken from patent US10166253B2, “Positively charged co-polymers for use as antimicrobial agents” (priority 2014, dated 2019).

With Glatiramer acetate [GA], in experiment [1] (setting [3]), the “antimicrobial activity (in words)” value is reported as “more potent than when treating bacteria with 7% isopropanol” and the decreased bacterial inoculum was around 75%. The “increased PI positivity” value in experiment [1] (within the 30 minutes of treatment (FIG. 4 overview)) is around 50%. Besides, the “binding capacity to bacteria (MFI, in words)” value with P. aeruginosa (PAO1) is on record as “retained its binding capacity”. Also, the “antibacterial effect by CFU counting (in words)” value in experiment [2] is “higher antimicrobial activity”. The “ultrastructural changes (TEM, in words)” value in the experiment on E. coli (NCTC 10418) was “Signs of damage to the bacterial membrane”.
